Each structure is given as a SMILES string. Structures can show the parent of a compound that is named as a salt. Starred links: 1 amine or outer side, 2 acyl side, 3 side chain; linkers in the order of their positions; H or OH if unused. Positions of bridges follow the written chain, without caps; N, C: chain ends. Non-standard residues stand in square brackets, D forms with d. Residues, ends and D or L forms follow the SMILES beside them. Groups on a side chain read outwards from the residue. *: point of attachment. Me3N+(CH2)2O(CH2)2O(CH2)2CO = C[N+](C)(C)CCOCCOCCC(=O)*; Trp(7-CF3) = N[C@@H](Cc1c[nH]c2c(C(F)(F)F)cccc12)C(=O)O; Ala(1-Me-3-pyridinium) = C[n+]1cccc(C[C@H](N)C(=O)O)c1; Trp(7-Me) = Cc1cccc2c(C[C@H](N)C(=O)O)c[nH]c12; 3Oxa8azabicyclo(3.2.1)octane = C1CC2COCC1N2*; dLys(Me3) = C[N+](C)(C)CCCC[C@@H](N)C(=O)O; Lys(Me3) = C[N+](C)(C)CCCC[C@H](N)C(=O)O; Dab(NMeAc) = CC(=O)N(C)CC[C@H](N)C(=O)O; 2Nal = N[C@@H](Cc1ccc2ccccc2c1)C(=O)O; AEF = NCCOc1ccc(C[C@H](N)C(=O)O)cc1; dNMeY = CN[C@H](Cc1ccc(O)cc1)C(=O)O; X10 = C[N+](C)(C)C[C@H](CC(=O)O)N*; 3Pal = N[C@@H](Cc1cccnc1)C(=O)O; Lys(Me) = CNCCCC[C@H](N)C(=O)O; Pen = CC(C)(S)[C@H](N)C(=O)O; Suc = O=C(CCC(=O)[*:2])[*:1]; αMeK = C[C@](N)(CCCCN)C(=O)O; Thp = NC1(C(=O)O)CCOCC1; X3 = C[N+](C)(C)CCCCC*; X72 = C[N+](C)(C)CCCC*; Me2NCH2CH2 = CN(C)CC*; X42 = O=C(O)CCCCCCCC*; Tfa = O=C(C(F)(F)F)*; Sar = CNCC(=O)O

These results are taken from patent US20260022143A1, “Cyclic Peptide Inhibitors of IL-23” (JANSSEN PHARMACEUTICA NV, priority 2022, published 2026).

The nature of the series: Exposed Polar Surface Area (EPSA). In kind it is physicochemical. The conditions noted are these: SFC on Chirex 3014 column; sample 1 mM DMSO stock; read-out: EPSA. Summed up:
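EPSA, in Å^2, is read from SFC retention time through a linear relationship established with eight calibration standards. Separation uses a Chirex 3014 stationary phase, 35 °C, 14 MPa back pressure, and a 5–60% methanol/ammonium formate modifier gradient in CO2.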
With `CC(=O)N(C)CCCC[C@@H]1NC(=O)[C@H](Cc2c[nH]c3c(C)cccc23)NC(=O)[C@H]([C@@H](C)O)NC(=O)[C@H](CC(=O)N(C)C)NC(=O)[C@@H](NC(=O)CCOCCOCC[N+](C)(C)C)C(C)(C)SSC(C)(C)[C@@H](C(=O)N[C@@H](Cc2ccc(OCCCCCCCCC(=O)O)cc2)C(=O)N[C@@H](Cc2ccc3ccccc3c2)C(=O)NC2(C(=O)N[C@@H](CCCCN(C)C(C)=O)C(=O)N[C@@H](CC(N)=O)C(=O)N[C@@H](Cc3cccnc3)C(=O)N(C)CC(=O)N(C)C)CCOCC2)NC1=O` [compound 236, cPEG3aCO-Pen(3)-N(N(Me)2)-T-7MeW-K(NMeAc)-Pen(3)-Y(C9OH)-2Nal-THP-K(NMeAc)-N-3Pya-Sar-CON(Me)2] ({Me3N+(CH2)2O(CH2)2O(CH2)2CO}-[Pen]D(NMe2)T[Trp(7-Me)][Lys(Me)](Ac)[Pen]Y(X42)[2Nal][Thp][Lys(Me)](Ac)N[3Pal][Sar]-NMe2; disulfide 1-6), the EPSA was found to be 159 A^2.

With `Cc1cccc2c(C[C@@H]3NC(=O)[C@H]([C@@H](C)O)NC(=O)[C@H](CC(=O)N(C)C)NC(=O)[C@@H](NC(=O)CCOCCOCC[N+](C)(C)C)C(C)(C)SSC(C)(C)[C@@H](C(=O)N[C@@H](Cc4ccc(OCCN(C)C)cc4)C(=O)N[C@@H](Cc4ccc5ccccc5c4)C(=O)NC4(C(=O)N[C@@H](CCC(=O)N(C)C)C(=O)N[C@@H](CC(N)=O)C(=O)N[C@@H](Cc5cccnc5)C(=O)N(C)CC(=O)N(C)C)CCOCC4)NC(=O)[C@H](CCC(=O)N(C)C)NC3=O)c[nH]c12` [compound 154, cPEG3aCO-Pen(3)-N(N(Me)2)-T-7MeW-Q(N(Me)2)-Pen(3)-AEF(N(Me)2)-2Nal-THP-Q(N(Me)2)-N-3Pya-Sar-CON(Me)2] ({Me3N+(CH2)2O(CH2)2O(CH2)2CO}-[Pen]D(NMe2)T[Trp(7-Me)]E(NMe2)[Pen]Y(Me2NCH2CH2)[2Nal][Thp]E(NMe2)N[3Pal][Sar]-NMe2; disulfide 1-6), the EPSA turned out to be 144 A^2.

Regarding `CC(=O)N(C)CCCC[C@@H]1NC(=O)[C@H](Cc2c[nH]c3c(C(F)(F)F)cccc23)NC(=O)[C@H]([C@@H](C)O)NC(=O)[C@H](CC(=O)N(C)C)NC(=O)[C@@H](NC(=O)C(F)(F)F)C(C)(C)SSC(C)(C)[C@@H](C(=O)N[C@@H](Cc2ccc(OCCN)cc2)C(=O)N[C@@H](Cc2ccc3ccccc3c2)C(=O)NC2(C(=O)N[C@@H](CCCCN(C)C(C)=O)C(=O)N[C@@H](CC(N)=O)C(=O)N[C@@H](Cc3cccnc3)C(=O)N(C)CC(=O)N(C)C)CCOCC2)NC1=O` [compound 94, CF3CO-Pen(3)-N(N(Me)2)-T-7CF3W-K(NMeAc)-Pen(3)-AEF-2Nal-THP-K(NMeAc)-N-3Pya-Sar-CON(Me)2] (Tfa-[Pen]D(NMe2)T[Trp(7-CF3)][Lys(Me)](Ac)[Pen][AEF][2Nal][Thp][Lys(Me)](Ac)N[3Pal][Sar]-NMe2; disulfide 1-6), the EPSA was 142 A^2.

As for `CC(=O)NCCCC[C@@H]1NC(=O)[C@H](Cc2c[nH]c3c(C)cccc23)NC(=O)[C@H]([C@@H](C)O)NC(=O)[C@H](CC(N)=O)NC(=O)[C@@H](NC(=O)[C@@H](CCCC[N+](C)(C)C)NC(C)=O)C(C)(C)SSC(C)(C)[C@@H](C(=O)N[C@@H](Cc2ccc(OCCCCC[N+](C)(C)C)cc2)C(=O)N[C@@H](Cc2ccc3ccccc3c2)C(=O)NC2(C(=O)N[C@@H](CCC(=O)O)C(=O)N[C@@H](CC(N)=O)C(=O)N[C@@H](Cc3cccnc3)C(=O)N(C)CC(N)=O)CCOCC2)NC1=O` [compound 446, MeCO-k(Me)3-Pen(3)-N-T-7MeW-K(Ac)-Pen(3)-TMAPF-2Nal-THP-E-N-3Pya-Sar-CONH2] (Ac-[dLys(Me3)][Pen]NT[Trp(7-Me)]K(Ac)[Pen]Y(X3)[2Nal][Thp]EN[3Pal][Sar]-NH2; disulfide 2-7), the EPSA was 173 A^2.

With `CC(=O)NCCCC[C@H](NC(=O)C1(NC(=O)[C@H](Cc2ccc3ccccc3c2)NC(=O)[C@H](Cc2ccc(OCCN)cc2)NC(=O)[C@H]2NC(=O)[C@H](CCN(C)C(C)=O)NC(=O)[C@H](Cc3c[nH]c4c(C)cccc34)NC(=O)[C@H]([C@@H](C)O)NC(=O)[C@H](CC(N)=O)NC(=O)[C@@H](NC(=O)C(F)(F)F)C(C)(C)SSC2(C)C)CCOCC1)C(=O)N[C@@H](CC(N)=O)C(=O)N[C@@H](Cc1ccc[n+](C)c1)C(=O)N(C)CC(N)=O` [compound 51] (Tfa-[Pen]NT[Trp(7-Me)][Dab(NMeAc)][Pen][AEF][2Nal][Thp]K(Ac)N[Ala(1-Me-3-pyridinium)][Sar]-NH2; disulfide 1-6), the EPSA amounted to 156 A^2.

In the case of `CC(=O)NCCCC[C@@H]1NC(=O)[C@H](Cc2c[nH]c3c(C)cccc23)NC(=O)[C@H]([C@@H](C)O)NC(=O)[C@H](CC(N)=O)NC(=O)[C@@H](NC(C)=O)C(C)(C)SSC(C)(C)[C@@H](C(=O)N[C@@H](Cc2ccc(OCCN)cc2)C(=O)N[C@@H](Cc2ccc3ccccc3c2)C(=O)N[C@@](C)(CCCCN)C(=O)N[C@@H](CCCCNC(C)=O)C(=O)N[C@@H](CC(N)=O)C(=O)N[C@@H](C(=O)N(C)[C@H](Cc2ccc(O)cc2)C(N)=O)C(C)C)NC1=O` [compound 14, MeCO-Pen(3)-N-T-7MeW-K(Ac)-Pen(3)-AEF-2Nal-aMeK-K(Ac)-N-v-NMeDTyr-CONH2] (Ac-[Pen]NT[Trp(7-Me)]K(Ac)[Pen][AEF][2Nal][αMeK]K(Ac)N[dV][dNMeY]-NH2; disulfide 1-6), the EPSA came to 166 A^2.

As to `CC(=O)NCCCC[C@@H]1NC(=O)[C@H](Cc2c[nH]c3c(C)cccc23)NC(=O)[C@H]([C@@H](C)O)NC(=O)[C@H](CC(N)=O)NC(=O)[C@@H](NC(C)=O)C(C)(C)SSC(C)(C)[C@@H](C(=O)N[C@@H](Cc2ccc(OCCN)cc2)C(=O)N[C@@H](Cc2ccc3ccccc3c2)C(=O)NC2(C(=O)N[C@@H](CCC(=O)O)C(=O)N[C@@H](CC(N)=O)C(=O)N[C@@H](Cc3cccnc3)C(=O)N(C)CC(=O)N3C4CCC3COC4)CCOCC2)NC1=O` [compound 115] (Ac-[Pen]NT[Trp(7-Me)]K(Ac)[Pen][AEF][2Nal][Thp]EN[3Pal][Sar]-{3Oxa8azabicyclo(3.2.1)octane}; disulfide 1-6), the EPSA turned out to be 171 A^2.

On to `CC(=O)N[C@@H]1C(=O)N[C@@H](CC(=O)N(C)C)C(=O)N[C@@H]([C@@H](C)O)C(=O)N[C@@H](Cc2c[nH]c3c(C)cccc23)C(=O)N[C@@H](CCCC[N+](C)(C)C)C(=O)N[C@H](C(=O)N[C@@H](Cc2ccc(OCCN(C)C)cc2)C(=O)N[C@@H](Cc2ccc3ccccc3c2)C(=O)NC2(C(=O)N[C@@H](CCCC[N+](C)(C)C)C(=O)N[C@@H](CC(N)=O)C(=O)N[C@@H](Cc3cccnc3)C(=O)N(C)CC(=O)N(C)C)CCOCC2)C(C)(C)SSC1(C)C` [compound 117, MeCO-Pen(3)-N(N(Me)2)-T-7MeW-K(Me)3-Pen(3)-AEF(N(Me)2)-2Nal-THP-K(Me)3-N-3Pya-Sar-CON(Me)2] (Ac-[Pen]D(NMe2)T[Trp(7-Me)][Lys(Me3)][Pen]Y(Me2NCH2CH2)[2Nal][Thp][Lys(Me3)]N[3Pal][Sar]-NMe2; disulfide 1-6), for which the EPSA came to 139 A^2.

As to `CC(=O)NCCCC[C@@H]1NC(=O)[C@H](Cc2c[nH]c3c(C)cccc23)NC(=O)[C@H]([C@@H](C)O)NC(=O)[C@H](CC(N)=O)NC(=O)[C@@H](NC(C)=O)C(C)(C)SSC(C)(C)[C@@H](C(=O)N[C@@H](Cc2ccc(OCCN)cc2)C(=O)N[C@@H](Cc2ccc3ccccc3c2)C(=O)NC2(C(=O)N[C@@H](CCCCNC(=O)CCC(=O)N[C@@H](CC(=O)O)C[N+](C)(C)C)C(=O)N[C@@H](CC(N)=O)C(=O)N[C@@H](Cc3cccnc3)C(=O)N(C)CC(N)=O)CCOCC2)NC1=O` [compound 110] (Ac-[Pen]NT[Trp(7-Me)]K(Ac)[Pen][AEF][2Nal][Thp]K([Suc-X10])N[3Pal][Sar]-NH2; disulfide 1-6), the EPSA was determined as 171 A^2.

Take `CC(=O)N(C)CCCC[C@@H]1NC(=O)[C@H](Cc2c[nH]c3c(C)cccc23)NC(=O)[C@H]([C@@H](C)O)NC(=O)[C@H](CC(=O)N(C)C)NC(=O)[C@@H](NC(=O)CCOCCOCC[N+](C)(C)C)C(C)(C)SSC(C)(C)[C@@H](C(=O)N[C@@H](Cc2ccc(OCCCC[N+](C)(C)C)cc2)C(=O)N[C@@H](Cc2ccc3ccccc3c2)C(=O)NC2(C(=O)N[C@@H](CCCCN(C)C(C)=O)C(=O)N[C@@H](CC(N)=O)C(=O)N[C@@H](Cc3cccnc3)C(=O)N(C)CC(=O)N(C)C)CCOCC2)NC1=O` [compound 226, cPEG3aCO-Pen(3)-N(N(Me)2)-T-7MeW-K(NMeAc)-Pen(3)-TMA4F-2Nal-THP-K(NMeAc)-N-3Pya-Sar-CON(Me)2] ({Me3N+(CH2)2O(CH2)2O(CH2)2CO}-[Pen]D(NMe2)T[Trp(7-Me)][Lys(Me)](Ac)[Pen]Y(X72)[2Nal][Thp][Lys(Me)](Ac)N[3Pal][Sar]-NMe2; disulfide 1-6): the EPSA was 142 A^2.

For the compound `CC(=O)NCCCC[C@@H]1NC(=O)[C@H](Cc2c[nH]c3c(C)cccc23)NC(=O)[C@H]([C@@H](C)O)NC(=O)[C@H](CC(N)=O)NC(=O)[C@@H](NC(C)=O)C(C)(C)SSC(C)(C)[C@@H](C(=O)N[C@@H](Cc2ccc(OCCN)cc2)C(=O)N[C@@H](Cc2ccc3ccccc3c2)C(=O)N[C@@](C)(CCCCN)C(=O)N[C@H](CCCCNC(C)=O)C(=O)N[C@@H](CC(N)=O)C(=O)N[C@H](CCCCN)C(=O)N(C)[C@H](Cc2ccc(O)cc2)C(N)=O)NC1=O` [compound 5, MeCO-Pen(3)-N-T-7MeW-K(Ac)-Pen(3)-AEF-2Nal-aMeK-k(Ac)-N-dK-NMeDTyr-CONH2] (Ac-[Pen]NT[Trp(7-Me)]K(Ac)[Pen][AEF][2Nal][αMeK][dK](Ac)N[dK][dNMeY]-NH2; disulfide 1-6), the EPSA was 168 A^2.

With `CC(=O)NCCCC[C@@H]1NC(=O)[C@H](Cc2c[nH]c3c(C)cccc23)NC(=O)[C@H]([C@@H](C)O)NC(=O)[C@H](CC(N)=O)NC(=O)[C@@H](NC(=O)CCOCCOCC[N+](C)(C)C)C(C)(C)SSC(C)(C)[C@@H](C(=O)N[C@@H](Cc2ccc(OCCCCC[N+](C)(C)C)cc2)C(=O)N[C@@H](Cc2ccc3ccccc3c2)C(=O)NC2(C(=O)N[C@@H](CCC(=O)O)C(=O)N[C@@H](CC(N)=O)C(=O)N[C@@H](Cc3cccnc3)C(=O)N(C)CC(N)=O)CCOCC2)NC1=O` [compound 427, cPEG3aCO-Pen(3)-N-T-7MeW-K(Ac)-Pen(3)-TMAPF-2Nal-THP-E-N-3Pya-Sar-CONH2] ({Me3N+(CH2)2O(CH2)2O(CH2)2CO}-[Pen]NT[Trp(7-Me)]K(Ac)[Pen]Y(X3)[2Nal][Thp]EN[3Pal][Sar]-NH2; disulfide 1-6), the EPSA was found to be 168 A^2.
